Assay results from patent publication US12617779B2, “Self degradation-type CDK9 inhibitor prodrug and liposome encapsulating same” (Sumitomo Pharma Co., Ltd., priority 2021, dated 2026).
Counter-ions that a name gives are not always drawn.

Test: Evaluation of conversion rate to active form in buffer solution (Experimental Example 1)
Type: physicochemical
Details: for Production rate of Alvocidib / Residual rate: 37° C., 25 umol/L in buffer solution
Summary of the method: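 Conversion to Alvocidib was followed by HPLC over 3 hours at 37° C, with test compounds at 25 umol/L in 50 mM citrate or phosphate buffers spanning pH 5.0–7.4.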

**Q.** For `CCN(CC1CCCCN1)C(=O)Oc1cc(O)c2c(=O)cc(-c3ccccc3Cl)oc2c1[C@H]1CCN(C)C[C@H]1O` (stereo partly drawn) [Example 7, 2-(2-chlorophenyl)-5-hydroxy-8-[(3S,4R)-3-hydroxy-1-methylpiperidin-4-yl]-4-oxo-4H-1-benzopyran-7-yl ethyl[(piperidin-2-yl)methyl]carbamate dihydrochloride], which “Production rate of Alvocidib” value (pH5.0, 0 hr) is on record?
**A.** The value was 0.0%.

**Q.** What about the Residual rate (pH5.0, 0 hr) of the same compound?
**A.** The Residual rate was 100.0%.

**Q.** And the “Stability in buffer solution at pH 5” value (pH 5, 37° C., up to 2 or 3 hours)?
**A.** Its value is “stable”.

**Q.** What about the “Production rate of Alvocidib” value (pH5.0, 0.5 hr) of the same compound?
**A.** Its value is 0.0%.

**Q.** And the Residual rate (pH5.0, 0.5 hr)?
**A.** The Residual rate was 100.0%.

**Q.** What about the “Production rate of Alvocidib” value (pH5.0, 1 hr) of the same compound?
**A.** Its value is 0.0%.

**Q.** And the Residual rate (pH5.0, 1 hr)?
**A.** Its Residual rate is 100.0%.

**Q.** And the “Production rate of Alvocidib” value (pH5.0, 2 hr)?
**A.** Its value is 1.5%.

**Q.** And the Residual rate (pH5.0, 2 hr)?
**A.** The Residual rate was 98.5%.

**Q.** And the “Production rate of Alvocidib” value (pH5.0, 3 hr)?
**A.** Its value is 2.3%.

**Q.** What about the Residual rate (pH5.0, 3 hr) of the same compound?
**A.** The Residual rate was 97.7%.

**Q.** And the “Production rate of Alvocidib” value (pH5.5, 0 hr)?
**A.** The value was 0.0%.

**Q.** And the Residual rate (pH5.5, 0 hr)?
**A.** The Residual rate was 100.0%.

**Q.** And the “Production rate of Alvocidib” value (pH5.5, 0.5 hr)?
**A.** The value was 1.2%.

**Q.** What about the Residual rate (pH5.5, 0.5 hr) of the same compound?
**A.** The Residual rate was 98.8%.

**Q.** What about the “Production rate of Alvocidib” value (pH5.5, 1 hr) of the same compound?
**A.** Its value is 2.0%.

**Q.** What about the Residual rate (pH5.5, 1 hr) of the same compound?
**A.** Its Residual rate is 98.0%.

**Q.** What about the “Production rate of Alvocidib” value (pH5.5, 2 hr) of the same compound?
**A.** Its value is 3.8%.

**Q.** What about the Residual rate (pH5.5, 2 hr) of the same compound?
**A.** Its Residual rate is 96.2%.

**Q.** What about the “Production rate of Alvocidib” value (pH5.5, 3 hr) of the same compound?
**A.** Its value is 5.1%.

**Q.** And the Residual rate (pH5.5, 3 hr)?
**A.** The Residual rate was 94.9%.

**Q.** What about the “Production rate of Alvocidib” value (pH6.0, 0 hr) of the same compound?
**A.** The value was 1.1%.

**Q.** And the Residual rate (pH6.0, 0 hr)?
**A.** The Residual rate was 98.9%.

**Q.** And the “Production rate of Alvocidib” value (pH6.0, 0.5 hr)?
**A.** Its value is 4.0%.

**Q.** What about the Residual rate (pH6.0, 0.5 hr) of the same compound?
**A.** Its Residual rate is 96.0%.

**Q.** And the “Production rate of Alvocidib” value (pH6.0, 1 hr)?
**A.** The value was 5.4%.

**Q.** And the Residual rate (pH6.0, 1 hr)?
**A.** The Residual rate was 94.6%.

**Q.** What about the “Production rate of Alvocidib” value (pH6.0, 2 hr) of the same compound?
**A.** The value was 12.5%.

**Q.** And the Residual rate (pH6.0, 2 hr)?
**A.** Its Residual rate is 87.5%.

**Q.** What about the “Production rate of Alvocidib” value (pH6.0, 3 hr) of the same compound?
**A.** The value was 16.6%.

**Q.** What about the Residual rate (pH6.0, 3 hr) of the same compound?
**A.** Its Residual rate is 83.4%.

**Q.** What about the “Production rate of Alvocidib” value (pH6.5, 0 hr) of the same compound?
**A.** Its value is 3.3%.

**Q.** What about the Residual rate (pH6.5, 0 hr) of the same compound?
**A.** The Residual rate was 96.7%.

**Q.** And the “Production rate of Alvocidib” value (pH6.5, 0.5 hr)?
**A.** The value was 12.4%.

**Q.** What about the Residual rate (pH6.5, 0.5 hr) of the same compound?
**A.** Its Residual rate is 87.6%.

**Q.** And the “Production rate of Alvocidib” value (pH6.5, 1 hr)?
**A.** The value was 16.0%.

**Q.** What about the Residual rate (pH6.5, 1 hr) of the same compound?
**A.** Its Residual rate is 84.0%.

**Q.** And the “Production rate of Alvocidib” value (pH6.5, 2 hr)?
**A.** Its value is 26.8%.

**Q.** What about the Residual rate (pH6.5, 2 hr) of the same compound?
**A.** Its Residual rate is 73.2%.

**Q.** What about the “Production rate of Alvocidib” value (pH6.5, 3 hr) of the same compound?
**A.** Its value is 35.2%.

**Q.** And the Residual rate (pH6.5, 3 hr)?
**A.** Its Residual rate is 64.8%.

**Q.** And the “Production rate of Alvocidib” value (pH7.0, 0 hr)?
**A.** The value was 10.9%.

**Q.** And the Residual rate (pH7.0, 0 hr)?
**A.** The Residual rate was 89.1%.

**Q.** What about the “Production rate of Alvocidib” value (pH7.0, 0.5 hr) of the same compound?
**A.** Its value is 27.3%.

**Q.** What about the Residual rate (pH7.0, 0.5 hr) of the same compound?
**A.** Its Residual rate is 72.7%.

**Q.** And the “Production rate of Alvocidib” value (pH7.0, 1 hr)?
**A.** Its value is 38.0%.

**Q.** And the Residual rate (pH7.0, 1 hr)?
**A.** Its Residual rate is 62.0%.

**Q.** What about the “Production rate of Alvocidib” value (pH7.0, 2 hr) of the same compound?
**A.** Its value is 52.9%.

**Q.** What about the Residual rate (pH7.0, 2 hr) of the same compound?
**A.** The Residual rate was 47.1%.

**Q.** What about the “Production rate of Alvocidib” value (pH7.0, 3 hr) of the same compound?
**A.** Its value is 70.5%.

**Q.** And the Residual rate (pH7.0, 3 hr)?
**A.** The Residual rate was 29.5%.

**Q.** What about the “Production rate of Alvocidib” value (pH7.4, 0 hr) of the same compound?
**A.** The value was 19.0%.

**Q.** And the Residual rate (pH7.4, 0 hr)?
**A.** Its Residual rate is 81.0%.

**Q.** What about the “Conversion to Alvocidib at pH 7.4” value (pH 7.4, 37° C., up to 3 hours) of the same compound?
**A.** Its value is “rapidly converted to Alvocidib”.

**Q.** And the “Production rate of Alvocidib” value (pH7.4, 0.5 hr)?
**A.** The value was 50.2%.

**Q.** What about the Residual rate (pH7.4, 0.5 hr) of the same compound?
**A.** The Residual rate was 49.8%.

**Q.** And the “Production rate of Alvocidib” value (pH7.4, 1 hr)?
**A.** The value was 60.8%.

**Q.** And the Residual rate (pH7.4, 1 hr)?
**A.** Its Residual rate is 39.2%.

**Q.** And the “Production rate of Alvocidib” value (pH7.4, 2 hr)?
**A.** The value was 69.0%.

**Q.** And the Residual rate (pH7.4, 2 hr)?
**A.** The Residual rate was 31.0%.

**Q.** What about the “Production rate of Alvocidib” value (pH7.4, 3 hr) of the same compound?
**A.** The value was 81.0%.

**Q.** What about the Residual rate (pH7.4, 3 hr) of the same compound?
**A.** The Residual rate was 19.0%.
